What all share (test): relative viability (nuclei count vs DMSO), 5 days (fraction); higher = more cells survive
Compound in the experiment “Vismodegib + AZD7762”: CS(=O)(=O)c1ccc(C(=O)Nc2ccc(Cl)c(-c3ccccn3)c2)c(Cl)c1 [Vismodegib] + NC(=O)Nc1cc(-c2cccc(F)c2)sc1C(=O)N[C@H]1CCCNC1 [AZD7762] (partner 0.2 µM)
The essentials: (§1)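 Cells from lung cancer lines were seeded into 1536-well plates and, one day later, dosed by pin tool. Treatments were either a single drug or a fixed dose of an anchor drug with five library-drug doses (not always all listed) in √10 steps. After 5 days, nuclei were stained in a one-step fixation (final 0.05% Triton X-100, 1% formaldehyde, 1 ug/ml Hoechst) and counted on 4× images, and relative viability is the treated-to-vehicle nuclei ratio, as the median of duplicate plates.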

Compound in the experiment “Vismodegib + Tozasertib”: CS(=O)(=O)c1ccc(C(=O)Nc2ccc(Cl)c(-c3ccccn3)c2)c(Cl)c1 [Vismodegib] + Cc1cc(Nc2cc(N3CCN(C)CC3)nc(Sc3ccc(NC(=O)C4CC4)cc3)n2)n[nH]1 [Tozasertib] (partner 0.1 µM)
The essentials: as §1

Compound in the experiment “VE-821 + Luminespib”: CS(=O)(=O)c1ccc(-c2cnc(N)c(C(=O)Nc3ccccc3)n2)cc1 [VE-821] + CCNC(=O)c1noc(-c2cc(C(C)C)c(O)cc2O)c1-c1ccc(CN2CCOCC2)cc1 [Luminespib] (partner 0.01 µM)
Put shortly:
as §1

Compound in the experiment “Vismodegib + Phenformin”: CS(=O)(=O)c1ccc(C(=O)Nc2ccc(Cl)c(-c3ccccn3)c2)c(Cl)c1 [Vismodegib] + N=C(N)NC(=N)NCCc1ccccc1 [Phenformin] (partner 250 µM)
Put shortly: as §1

For the cell line NCI-H3122, the relative viability with Vismodegib + AZD7762 (first compound 0.08 µM) stood at 0.959; in the experiment with Vismodegib + AZD7762 (first compound 0.253 µM), 0.953; in the experiment with Vismodegib + AZD7762 (first compound 0.8 µM) it was 0.959; in the experiment with Vismodegib + AZD7762 (first compound 2.53 µM), 0.965; with Vismodegib + AZD7762 (first compound 8 µM), 0.955; in the experiment with Vismodegib + Tozasertib (first compound 0.08 µM) it was 0.399. The relative viability with Vismodegib + Tozasertib (first compound 0.253 µM) amounted to 0.382; in the experiment with Vismodegib + Tozasertib (first compound 0.8 µM), 0.343; in the experiment with Vismodegib + Tozasertib (first compound 2.53 µM), 0.384; with Vismodegib + Tozasertib (first compound 8 µM) it was 0.373; with VE-821 + Luminespib (first compound 0.08 µM), 0.111; with VE-821 + Luminespib (first compound 0.253 µM) it was 0.064. In addition, the relative viability came out at 0.0908 with VE-821 + Luminespib (first compound 0.8 µM); 0.0825 with VE-821 + Luminespib (first compound 2.53 µM); 0.0706 with VE-821 + Luminespib (first compound 8 µM); 0.377 with Vismodegib + Phenformin (first compound 0.08 µM); 0.356 in the experiment with Vismodegib + Phenformin (first compound 0.253 µM); 0.362 in the experiment with Vismodegib + Phenformin (first compound 0.8 µM). Besides, the values for the relative viability with Vismodegib + Phenformin (first compound 2.53 µM) and with Vismodegib + Phenformin (first compound 8 µM) were 0.365 and 0.36, respectively.
As for PC-3 [JPC-3], the relative viability with Vismodegib + AZD7762 (first compound 0.08 µM) was determined as 0.824; in the experiment with Vismodegib + AZD7762 (first compound 0.253 µM), 0.715; with Vismodegib + AZD7762 (first compound 0.8 µM) it was 0.743; with Vismodegib + AZD7762 (first compound 2.53 µM) it was 0.729; with Vismodegib + AZD7762 (first compound 8 µM), 0.708; in the experiment with Vismodegib + Tozasertib (first compound 0.08 µM), 0.932. In addition, the relative viability amounted to 0.87 with Vismodegib + Tozasertib (first compound 0.253 µM); 0.933 in the experiment with Vismodegib + Tozasertib (first compound 0.8 µM); 0.852 in the experiment with Vismodegib + Tozasertib (first compound 2.53 µM); 0.873 with Vismodegib + Tozasertib (first compound 8 µM); 0.718 with VE-821 + Luminespib (first compound 0.08 µM); 0.718 with VE-821 + Luminespib (first compound 0.253 µM). The relative viability with VE-821 + Luminespib (first compound 0.8 µM) is 0.698; with VE-821 + Luminespib (first compound 2.53 µM) it was 0.726; with VE-821 + Luminespib (first compound 8 µM), 0.705; with Vismodegib + Phenformin (first compound 0.08 µM) it was 0.483; with Vismodegib + Phenformin (first compound 0.253 µM), 0.48; with Vismodegib + Phenformin (first compound 0.8 µM), 0.457. Moreover, the relative viability in the experiment with Vismodegib + Phenformin (first compound 2.53 µM) and with Vismodegib + Phenformin (first compound 8 µM) was 0.483 each time.
Turning to PC-14, the relative viability amounted to 0.301 with Vismodegib + AZD7762 (first compound 0.08 µM); 0.326 with Vismodegib + AZD7762 (first compound 0.253 µM); 0.458 in the experiment with Vismodegib + AZD7762 (first compound 0.8 µM); 0.272 with Vismodegib + AZD7762 (first compound 2.53 µM); 0.353 with Vismodegib + AZD7762 (first compound 8 µM); 0.554 with Vismodegib + Tozasertib (first compound 0.08 µM). The relative viability in the experiment with Vismodegib + Tozasertib (first compound 0.253 µM) stood at 0.606; in the experiment with Vismodegib + Tozasertib (first compound 0.8 µM), 0.556; in the experiment with Vismodegib + Tozasertib (first compound 2.53 µM), 0.539; in the experiment with Vismodegib + Tozasertib (first compound 8 µM), 0.547; with VE-821 + Luminespib (first compound 0.08 µM), 0.173; with VE-821 + Luminespib (first compound 0.253 µM), 0.19. The relative viability with VE-821 + Luminespib (first compound 0.8 µM) was 0.123; in the experiment with VE-821 + Luminespib (first compound 2.53 µM), 0.241; in the experiment with VE-821 + Luminespib (first compound 8 µM), 0.12; in the experiment with Vismodegib + Phenformin (first compound 0.08 µM), 0.658; in the experiment with Vismodegib + Phenformin (first compound 0.253 µM), 0.444; in the experiment with Vismodegib + Phenformin (first compound 0.8 µM), 0.567. For the same cell line, the relative viability with Vismodegib + Phenformin (first compound 2.53 µM) was found to be 0.512; with Vismodegib + Phenformin (first compound 8 µM) it was 0.602.
On to RERF-LC-KJ, for which the relative viability in the experiment with Vismodegib + AZD7762 (first compound 0.08 µM) was determined as 1.09; with Vismodegib + AZD7762 (first compound 0.253 µM), 0.881; with Vismodegib + AZD7762 (first compound 0.8 µM), 0.959; in the experiment with Vismodegib + AZD7762 (first compound 2.53 µM) it was 0.974; with Vismodegib + AZD7762 (first compound 8 µM) it was 0.967; with Vismodegib + Tozasertib (first compound 0.08 µM), 0.495. In addition, the relative viability amounted to 0.532 with Vismodegib + Tozasertib (first compound 0.253 µM); 0.413 in the experiment with Vismodegib + Tozasertib (first compound 0.8 µM); 0.506 in the experiment with Vismodegib + Tozasertib (first compound 2.53 µM); 0.449 in the experiment with Vismodegib + Tozasertib (first compound 8 µM); 1.31 in the experiment with VE-821 + Luminespib (first compound 0.08 µM); 1.06 with VE-821 + Luminespib (first compound 0.253 µM). For the same cell line, the relative viability with VE-821 + Luminespib (first compound 0.8 µM) was determined as 1.06; with VE-821 + Luminespib (first compound 2.53 µM) it was 1.18; with VE-821 + Luminespib (first compound 8 µM), 0.931; with Vismodegib + Phenformin (first compound 0.08 µM), 0.422; with Vismodegib + Phenformin (first compound 0.253 µM) it was 0.427; in the experiment with Vismodegib + Phenformin (first compound 0.8 µM), 0.432. In addition, the relative viability with Vismodegib + Phenformin (first compound 2.53 µM) was found to be 0.437; with Vismodegib + Phenformin (first compound 8 µM), 0.455.
In the case of SW 900, the relative viability worked out at 0.474 with Vismodegib + AZD7762 (first compound 0.08 µM); 0.539 with Vismodegib + AZD7762 (first compound 0.253 µM); 0.689 in the experiment with Vismodegib + AZD7762 (first compound 0.8 µM); 0.61 with Vismodegib + AZD7762 (first compound 8 µM); 0.52 with Vismodegib + Tozasertib (first compound 0.08 µM); 0.574 with Vismodegib + Tozasertib (first compound 0.253 µM). Further, the relative viability in the experiment with Vismodegib + Tozasertib (first compound 0.8 µM) came out at 0.56; in the experiment with Vismodegib + Tozasertib (first compound 2.53 µM), 0.426; in the experiment with Vismodegib + Tozasertib (first compound 8 µM), 0.435; in the experiment with VE-821 + Luminespib (first compound 0.08 µM), 0.199; in the experiment with VE-821 + Luminespib (first compound 0.253 µM), 0.187; with VE-821 + Luminespib (first compound 0.8 µM) it was 0.156. Further, the relative viability in the experiment with VE-821 + Luminespib (first compound 2.53 µM) came out at 0.167; with VE-821 + Luminespib (first compound 8 µM), 0.152; in the experiment with Vismodegib + Phenformin (first compound 0.08 µM), 0.615; with Vismodegib + Phenformin (first compound 0.253 µM), 0.612; in the experiment with Vismodegib + Phenformin (first compound 0.8 µM) it was 0.718; with Vismodegib + Phenformin (first compound 2.53 µM), 0.744. In addition, the relative viability in the experiment with Vismodegib + Phenformin (first compound 8 µM) worked out at 0.676.

Source of the values: the supplement of paper PMC10307832.
